Experimental data from article PMC7187627 (Antimicrobial Agents and Chemotherapy, 2019).

Test: Safety and tolerability (adverse events, laboratory tests, ECG), multiple-ascending-dose phase 1 study
Format: in vivo
Description: Subjects were monitored closely with serial physical examinations, blood evaluations, and 12-lead ECGs. Subjects underwent safety laboratory testing, including measurement of blood cell counts (white blood cell [WBC] with differential, hemoglobin, and platelets), serum chemistry (sodium, potassium, chloride, calcium, bicarbonate, glucose, creatinine, blood urea nitrogen [BUN], creatine kinase [CK], aspartate aminotransferase [AST], alanine aminotransferase [ALT], alkaline phosphatase [ALP], total bilirubin, protein, albumin, amylase, and lipase) and urinalysis (protein, blood, and glucose). Study halting criteria had been established and were reviewed by an independent safety monitor (ISM) and the Safety Monitoring Committee (SMC) prior to proceeding with dosing within a cohort or to the next cohort.
The safety population included all subjects who received at least one dose of the study drug. The safety and tolerability of CRS3123 were evaluated by the sequential review of reported adverse events (AEs), changes from baseline in physical examination findings, vital sign measurements, safety laboratory tests (hematology, clinical chemistry, and urinalysis), and key 12-lead ECG findings. All safety assessments were summarized with descriptive statistics or frequency counts.
The period of observation for AE reporting began on day 1 at the time of study drug administration and continued through the final visit.
All AEs were coded to system organ class (SOC) and preferred term (PT) using the Medical Dictionary for Regulatory Activities (MedDRA), version 17.0 (https://www.meddra.org/). A treatment-emergent AE (TEAE) was defined as any AE that occurred during the study observation period (i.e., from day 1 at the time of study drug administration through the final visit). An AE with a partial onset date was classified as a TEAE if the reported partial onset date could not definitely be identified as before the date of study drug administration. Any AE with a missing onset date or missing time on day of study drug administration was classified as a TEAE.
To count the overall number of subjects who experienced each TEAE and calculation of an occurrence rate, a subject experiencing multiple occurrences of an AE was counted only once for that PT. Similarly, if a subject experienced multiple TEAEs within the same SOC, that subject was counted once to calculate an occurrence rate for the SOC. To count the number of subjects who experienced each TEAE by severity classification (mild, moderate, severe, and life-threatening) and calculate an occurrence rate, a subject experiencing multiple occurrences of an AE of the same severity was counted once in that particular severity classification for that PT. If a subject experienced multiple occurrences of an AE of differing severities, only the most severe occurrence within each PT was counted.

[1] = all TEAEs, Cohort B, 400 mg Q12h (n = 8)
[2] = all TEAEs, Cohort C, 600 mg Q12h (n = 8)
[3] = treatment-related AEs, All active (n = 24)
[4] = treatment-related AEs, Cohort A, 200 mg Q12h (n = 8)
[5] = treatment-related AEs, Cohort B, 400 mg Q12h (n = 8)
[6] = treatment-related AEs, Cohort C, 600 mg Q12h (n = 8)

O=c1cc(NCCCN[C@@H]2CCOc3c(Br)cc(Br)cc32)[nH]c2ccsc12 [CRS3123]
No. (%) of subjects: Dry skin [1]: 1 (12.5) | No. (%) of subjects: Dysgeusia [1]: 1 (12.5) | No. (%) of subjects: Ear and labyrinth disorders (system organ class) [1]: 0 (0.0) | No. (%) of subjects: Ear discomfort [1]: 0 (0.0) | No. (%) of subjects: Erythema [1]: 1 (12.5) | No. (%) of subjects: Gastrointestinal disorders (system organ class) [1]: 2 (25.0) | No. (%) of subjects: General disorders and administration site conditions (system organ class) [1]: 0 (0.0) | No. (%) of subjects: Headache [1]: 1 (12.5) | No. (%) of subjects: Hemoglobin decreased [1]: 1 (12.5) | No. (%) of subjects: Infections and infestations (system organ class) [1]: 0 (0.0) | No. (%) of subjects: Infusion site thrombosis [1]: 0 (0.0) | No. (%) of subjects: Injury, poisoning, and procedural complications (system organ class) [1]: 0 (0.0) | No. (%) of subjects: Investigations (system organ class) [1]: 4 (50.0) | No. (%) of subjects: Lipase increased [1]: 2 (25.0) | No. (%) of subjects: Myalgia [1]: 1 (12.5) | No. (%) of subjects: Nervous system disorders (system organ class) [1]: 2 (25.0) | No. (%) of subjects: Oropharyngeal pain [1]: 0 (0.0) | No. (%) of subjects: Psychiatric disorders (system organ class) [1]: 0 (0.0) | No. (%) of subjects: Respiratory, thoracic, and mediastinal disorders (system organ class) [1]: 1 (12.5) | No. (%) of subjects: Skin and subcutaneous tissue disorders (system organ class) [1]: 2 (25.0) | No. (%) of subjects: Subjects with TEAEs [1]: 6 (75.0) | No. (%) of subjects: Throat irritation [1]: 1 (12.5) | No. (%) of subjects: Upper respiratory tract infection [1]: 0 (0.0) | No. (%) of subjects: White blood cell count increased [1]: 0 (0.0) | No. (%) of subjects: Alanine aminotransferase increased [2]: 2 (25.0) | No. (%) of subjects: Amylase increased [2]: 1 (12.5) | No. (%) of subjects: Anxiety [2]: 0 (0.0) | No. (%) of subjects: Arthropod bite [2]: 0 (0.0) | No. (%) of subjects: Aspartate aminotransferase increased [2]: 2 (25.0) | No. (%) of subjects: Blood bilirubin increased [2]: 1 (12.5) | No. (%) of subjects: Blood calcium increased [2]: 0 (0.0) | No. (%) of subjects: Blood potassium increased [2]: 0 (0.0) | No. (%) of subjects: Blood pressure, diastolic, decreased [2]: 1 (12.5) | No. (%) of subjects: Blood pressure, diastolic, increased [2]: 1 (12.5) | No. (%) of subjects: Blood pressure, systolic, decreased [2]: 0 (0.0) | No. (%) of subjects: Blood pressure, systolic, increased [2]: 1 (12.5) | No. (%) of subjects: Diarrhea [2]: 0 (0.0) | No. (%) of subjects: Dry skin [2]: 0 (0.0) | No. (%) of subjects: Dysgeusia [2]: 0 (0.0) | No. (%) of subjects: Ear and labyrinth disorders (system organ class) [2]: 0 (0.0) | No. (%) of subjects: Ear discomfort [2]: 0 (0.0) | No. (%) of subjects: Erythema [2]: 0 (0.0) | No. (%) of subjects: Gastrointestinal disorders (system organ class) [2]: 0 (0.0) | No. (%) of subjects: General disorders and administration site conditions (system organ class) [2]: 1 (12.5) | No. (%) of subjects: Headache [2]: 0 (0.0) | No. (%) of subjects: Hemoglobin decreased [2]: 1 (12.5) | No. (%) of subjects: Infections and infestations (system organ class) [2]: 0 (0.0) | No. (%) of subjects: Infusion site thrombosis [2]: 1 (12.5) | No. (%) of subjects: Injury, poisoning, and procedural complications (system organ class) [2]: 0 (0.0) | No. (%) of subjects: Investigations (system organ class) [2]: 6 (75.0) | No. (%) of subjects: Lipase increased [2]: 2 (25.0) | No. (%) of subjects: Musculoskeletal and connective tissue disorders (system organ class) [2]: 0 (0.0) | No. (%) of subjects: Myalgia [2]: 0 (0.0) | No. (%) of subjects: Nervous system disorders (system organ class) [2]: 0 (0.0) | No. (%) of subjects: Oropharyngeal pain [2]: 1 (12.5) | No. (%) of subjects: Psychiatric disorders (system organ class) [2]: 0 (0.0) | No. (%) of subjects: Respiratory, thoracic, and mediastinal disorders (system organ class) [2]: 1 (12.5) | No. (%) of subjects: Skin and subcutaneous tissue disorders (system organ class) [2]: 0 (0.0) | No. (%) of subjects: Subjects with TEAEs [2]: 6 (75.0) | No. (%) of subjects: Throat irritation [2]: 0 (0.0) | No. (%) of subjects: Upper respiratory tract infection [2]: 0 (0.0) | No. (%) of subjects: White blood cell count increased [2]: 0 (0.0) | withdrawals due to TEAEs (all doses): No subjects were withdrawn | No. (%) of subjects: Alanine aminotransferase increased [3]: 1 (4.2) | No. (%) of subjects: Diarrhea [3]: 1 (4.2) | No. (%) of subjects: Dysgeusia [3]: 1 (4.2) | No. (%) of subjects: Gastrointestinal disorders (system organ class) [3]: 1 (4.2) | No. (%) of subjects: Investigations (system organ class) [3]: 1 (4.2) | No. (%) of subjects: Lipase increased [3]: 0 (0.0) | No. (%) of subjects: Nervous system disorders (system organ class) [3]: 1 (4.2) | No. (%) of subjects: Subjects with TEAEs [3]: 3 (12.5) | No. (%) of subjects: Alanine aminotransferase increased [4]: 0 (0.0) | No. (%) of subjects: Diarrhea [4]: 0 (0.0) | No. (%) of subjects: Dysgeusia [4]: 0 (0.0) | No. (%) of subjects: Gastrointestinal disorders (system organ class) [4]: 0 (0.0) | No. (%) of subjects: Investigations (system organ class) [4]: 0 (0.0) | No. (%) of subjects: Lipase increased [4]: 0 (0.0) | No. (%) of subjects: Nervous system disorders (system organ class) [4]: 0 (0.0) | No. (%) of subjects: Alanine aminotransferase increased [5]: 0 (0.0) | No. (%) of subjects: Diarrhea [5]: 1 (12.5) | No. (%) of subjects: Dysgeusia [5]: 1 (12.5) | No. (%) of subjects: Gastrointestinal disorders (system organ class) [5]: 1 (12.5) | No. (%) of subjects: Investigations (system organ class) [5]: 0 (0.0) | No. (%) of subjects: Lipase increased [5]: 0 (0.0) | No. (%) of subjects: Nervous system disorders (system organ class) [5]: 1 (12.5) | No. (%) of subjects: Alanine aminotransferase increased [6]: 1 (12.5) | No. (%) of subjects: Diarrhea [6]: 0 (0.0) | No. (%) of subjects: Dysgeusia [6]: 0 (0.0) | No. (%) of subjects: Gastrointestinal disorders (system organ class) [6]: 0 (0.0) | No. (%) of subjects: Investigations (system organ class) [6]: 1 (12.5) | No. (%) of subjects: Lipase increased [6]: 0 (0.0) | No. (%) of subjects: Nervous system disorders (system organ class) [6]: 0 (0.0) | severity of TEAEs (whole study): majority of TEAEs reported in the study were of mild severity
